According to patent US7531553B2, “Heterocyclic compounds and methods of use” (Amgen Inc., priority 2003, dated 2009):

System: Human Umbilical Vein Endothelial cells
Test: HUVEC proliferation assay (VEGF-stimulated)
Type: cell-based
Conditions: VEGF 50 ng/mL final, 72 h incubation, CyQuant dye, read-out: inhibited VEGF-stimulated HUVEC proliferation at a level (IC50)
Procedure: Human Umbilical Vein Endothelial cells are purchased from Clonetics, Inc., as cryopreserved cells harvested from a pool of donors. These cells, at passage 1, are thawed and expanded in EBM-2 complete medium, until passage 2 or 3. The cells are trypsinized, washed in DMEM+10% FBS+antibiotics, and spun at 1000 rpm for 10 min. Prior to centrifugation of the cells, a small amount is collected for a cell count. After centrifugation, the medium is discarded, and the cells are resuspended in the appropriate volume of DMEM+10% FBS+antibiotics to achieve a concentration of 3×10^5 cells/mL. Another cell count is performed to confirm the cell concentration. The cells are diluted to 3×10^4 cells/mL in DMEM+10% FBS+antibiotics, and 100 μL of cells are added to a 96-well plate. The cells are incubated at 37° C. for 22 h.
Prior to the completion of the incubation period, compound dilutions are prepared. Five-point, five-fold serial dilutions are prepared in DMSO, at concentrations 400-fold greater than the final concentrations desired. 2.5 μL of each compound dilution are diluted further in a total of 1 mL DMEM+10% FBS+antibiotics (400× dilution). Medium containing 0.25% DMSO is also prepared for the 0 μM compound sample. After 22-h, the medium is removed from the cells, and 100 μL of each compound dilution is added. The cells are incubated at 37° C. for 2-3 h.
During the compound pre-incubation period, the growth factors are diluted to the appropriate concentrations. Solutions of DMEM+10% FBS+antibiotics, containing either VEGF or bFGF at the following concentrations: 50, 10, 2, 0.4, 0.08, and 0 ng/mL are prepared. For the compound-treated cells, solutions of VEGF at 550 ng/mL or bFGF at 220 ng/mL for 50 ng/mL or 20 ng/mL final concentrations, respectively, are prepared since 10 μL of each will be added to the cells (110 μL final volume). At the appropriate time after adding the compounds, the growth factors are added. VEGF is added to one set of plates, while bFGF is added to another set of plates. For the growth factor control curves, the media on wells B4-G6 of plates 1 and 2 are replaced with media containing VEGF or bFGF at the varying concentrations (50-0 ng/mL). The cells are incubated at 37° C. for an additional 72 h.
At the completion of the 72 h incubation period, the medium is removed, and the cells are washed twice with PBS. After the second wash with PBS, the plates are tapped gently to remove excess PBS, and the cells are placed at −70° C. for at least 30 min. […] Raw data are collected and analyzed using a 4-parameter fit equation in XLFit. IC50 values are then determined.

SMILES	IC50 [nM]
COc1cc2nccc(Oc3ccc4oc(Nc5ccc(Cl)c(OC[C@@H]6CCCN6C)c5)nc4c3)c2cc1OC [Example 259, S-[4-Chloro-3-(1-methylpyrrolidin-2-ylmethoxy)-phenyl]-[5-(6,7-dimethoxyquinolin-4-yloxy)-benzoxazol-2-yl]-amine]	< 100
CNC(=O)c1cc(Oc2ccc3oc(Nc4ccc(C(C)C)cc4)nc3c2)ccn1 [Example 39]	< 100
CNC(=O)c1cc(Oc2cc(F)c3oc(Nc4ccc(Cl)c(OC[C@@H]5CCCN5C)c4)nc3c2)ccn1 [Example 49, 4-((2-((4-Chloro-3-(((2S)-1-methyl-2-pyrrolidinyl)methoxy)phenyl)amino)-7-fluoro-1,3-benzoxazol-5-yl)oxy)-N-methyl-2-pyridinecarboxamide]	< 100
CNC(=O)c1cc(Oc2ccc3[nH]c(Nc4ccc(C(F)(F)F)c(OCCN(C)C)c4)nc3c2)ccn1 [Example 13a]	< 100
CN1CCN(Cc2cc(Nc3nc4cc(Oc5ccnc6ccccc56)cc(Cl)c4o3)ccc2Cl)CC1 [Example 257, [4-Chloro-3-(4-methyl-piperazin-1-ylmethyl)-phenyl]-[7-chloro-5-(quinolin-4-yloxy)-benzoxazol-2-yl]-amine]	< 100
